Reference: US12491248B2, “Method for generating immunoregulatory cells in a blood-derived sample” (Therakos Development Limited, priority 2019, dated 2025)

Tests used:
B16 melanoma cells = assay: Survival of melanoma-bearing mice treated with anti-PD1; format: in vivo; conditions: combined with anti-PD1, compared to anti-PD1 only
Procedure: FIG. 7: • (a) Treatment schedule: Mice were injected iv with B16 melanoma cells and afterwards treated with anti-PD1, prednisolone or ECP as indicated. • (b) Survival of mice injected iv with B16 melanoma cells and afterwards treated with anti-PD1, prednisolone or ECP.
To understand if the immunomodulatory effect of ECP was connected to a loss of anti-tumor activity we next treated melanoma bearing mice with anti-PD1 alone or in combination with the glucocorticoid prednisolone or ECP (FIG. 7A). We observed that prednisolone reduced the survival of melanoma-bearing mice compared to the group treated with anti-PD1 only (FIG. 7B).

[1] = tested on: immune checkpoint inhibitor-related colitis; assay: Immunosuppressive drug treatment of the patient's colitis episodes before ECP; format: in vivo, human
Procedure: (§1) A patient was treated with ipilimumab and nivolumab for metastatic melanoma. […] Colitis was diagnosed based on macroscopic mucosal ulcerations and intraepithelial apoptosis and crypt loss identified in the biopsy (FIG. 1a,b). While dermatitis, thyroiditis and hepatitis resolved after stopping ipilimumab/nivolumab and corticosteroid treatment, the patient experienced three colitis episodes within the next 20 weeks (CTC-AE II-III°). These were treated with corticosteroids (in total 23 weeks prior to ECP), infliximab (2 single doses 18 and 15 weeks prior to ECP) and cyclosporine (14 weeks prior to ECP, FIG. 1a and Table 1).
The patient had their first episode of colitis 20 weeks prior to the start of ECP. At that time point they had been treated for 3 weeks with steroids for their previous immune checkpoint inhibitor-related hepatitis, thyroiditis and dermatitis. The colitis occurred during tapering of the steroids. Therefore, the steroid dose was increased and due to an insufficient response, infliximab 5 mg/kg BW was administered once. […] Upon steroid tapering, the patient experienced their second episode of colitis, 16 weeks prior to begin of ECP. They were treated with an increased dose of methylprednisolone and a second dose of infliximab. The diarrhea was refractory to this therapy and consequently cyclosporine A was added. […] Here, ECP treatment was initiated. […]

[2] = Adverse events of ipilimumab and nivolumab in the metastatic melanoma patient; format: in vivo, human; conditions: after two doses of ipilimumab and nivolumab
Procedure: as §1

## C[C@]12C=CC(=O)C=C1CC[C@@H]1[C@@H]2[C@@H](O)C[C@@]2(C)[C@H]1CC[C@]2(O)C(=O)CO [prednisolone]
B16 melanoma cells
  survival of melanoma-bearing mice: reduced

## infliximab: anti-TNF antibody
[1]; increased dose of methylprednisolone and a second dose of infliximab
  diarrhea, second episode: refractory
[1]; infliximab 5 mg/kg BW once, added to increased steroid dose
  colitis symptoms, first episode: symptoms resolved

## ipilimumab: antagonistic antibody directed against CTLA4
[2]
  immune-related adverse events developed: dermatitis, thyroiditis, hepatitis and colitis

## nivolumab: antagonistic anti-PD-1 antibody
[2]
  immune-related adverse events developed: dermatitis, thyroiditis, hepatitis and colitis
